Results as given in PMC2680961, “Homologous desensitization of signalling by the alpha (α) isoform of the human thromboxane A2 receptor: A specific role for nitric oxide signalling” (Biochimica et Biophysica Acta, 2007).
Numbering of substitutions follows the chain as printed.

Experiments:
Assay type in all cases: cell-based
TPα^S331,T337,S340A = target: T1, TPα^S331,T337,S340A (Homo sapiens, UniProt P21731, S331A/S340A/T337A); assay: Intracellular calcium mobilization, HEK.TP^S331,T337,S340A cells; settings: for Δ[Ca2+]i, U46619-induced: HEK.TP^S331,T337,S340A
T1 construct: expressed in transfected cells
T1 sequence (P21731 1-343 S331A/T337A/S340A): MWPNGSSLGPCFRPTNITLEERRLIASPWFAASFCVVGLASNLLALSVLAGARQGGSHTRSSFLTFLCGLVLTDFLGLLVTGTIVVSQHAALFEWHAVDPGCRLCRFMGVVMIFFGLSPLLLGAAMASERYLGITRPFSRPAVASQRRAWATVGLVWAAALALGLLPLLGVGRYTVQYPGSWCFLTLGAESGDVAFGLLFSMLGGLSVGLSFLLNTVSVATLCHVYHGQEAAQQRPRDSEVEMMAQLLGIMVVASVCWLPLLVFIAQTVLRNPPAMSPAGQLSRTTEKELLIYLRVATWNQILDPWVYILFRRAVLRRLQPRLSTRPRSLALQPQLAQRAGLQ
Experimental: (§1) Measurement of intracellular calcium mobilization ([Ca^2+]i) in FURA2/AM preloaded HEK 293 cell lines (2 × 10^6 cells/dish), each transiently co-transfected with pADVA (10 μg), and pCMV:Gαq (25 μg), was carried out as previously described. To investigate the effect of GRK2/βARK1 on TP-mediated [Ca^2+]i mobilization, HEK.TPα or HEK.TPβ cells (2 × 10^6 cells/dish) were co-transfected with pADVA (10 μg), pCMV:Gαq (25 μg) along with pRK5:βARK1^495–689 (25 μg), encoding a dominant negative form of GRK2/βARK1[39]. Approximately 48 h post-transfection, cells were harvested by scraping, washed twice in ice-cold PBS and resuspended in HBSSHB (modified Ca^2+/Mg^2+-free Hank's buffered salt solution, containing […], pH 7.67, 0.1% bovine serum albumin (BSA)) buffer at 10^7 cells/ml and incubated in the dark with 5 μM FURA2/AM for 45 min at 37 °C. […] For each measurement of [Ca^2+]i mobilization, aliquots of cells were diluted to 0.825 × 10^6 cells/ml in HBSSHB, 1 mM CaCl2 and FURA2 fluorescence was recorded (2 ml aliquots of cells) at 37^ °C with gentle stirring with a Perkin Elmer-Cetus LS50-B spectrofluorometer at excitation wavelengths of 340 nm and 380 nm and emission wavelength of 510 nm, respectively.
(§2) Cells were stimulated with the TP agonist U46619 (1 μM) and changes in [Ca^2+]i mobilization were monitored as a function of time. To assess agonist-mediated homologous desensitization, cells (0.825 × 10^6 cells/ml; 2 ml per assay) were stimulated with 1 μM U46619 (Primary stimulation) or, as a control, with the vehicle for 4 min; thereafter, cells were collected by centrifugation (900×g, 5 min); were washed twice in 2 ml HBSSHB, 1 mM CaCl2; and finally resuspended in 2 ml HBSSHB,1 mM CaCl2 and were left to recover over various time intervals (ranging from 0 to 60 min); thereafter, cells re-stimulated with 1 μM U46619 (Secondary stimulation) and changes in [Ca^2+]i mobilization were monitored as a function of time. […]

TPα^T337A = target: T2, TPα^T337A (Homo sapiens, UniProt P21731, T337A); assay: Intracellular calcium mobilization, HEK.TPα^T337A cells; settings: for Δ[Ca2+]i, U46619-induced: HEK.TPα^T337A
T2 construct: expressed in transfected cells
T2 sequence (P21731 1-343 T337A): T1 sequence (P21731 1-343 S331A/T337A/S340A) with A331S, A340S
Experimental: as §1, §2

TPα^S329,331A = target: T3, TPα^S329,331A (Homo sapiens, UniProt P21731, S329A/S331A); assay: Intracellular calcium mobilization, HEK.TPα^S329,331A cells; settings: for Δ[Ca2+]i, U46619-induced: HEK.TPα^S329,331A
T3 construct: expressed in transfected cells
T3 sequence (P21731 1-343 S329A/S331A): T1 sequence (P21731 1-343 S331A/T337A/S340A) with S329A, A337T, A340S
Experimental: as §1, §2

[1] = secondary 1 μM U46619 at 15 min

Δ[Ca2+]i, U46619-induced (TPα^S331,T337,S340A; primary 1 μM U46619 4 min): 195 ± 12 nM
Δ[Ca2+]i, U46619-induced (TPα^S331,T337,S340A; [1]): 67 ± 8.2 nM
secondary U46619 [Ca2+]i response relative to primary response (TPα^S331,T337,S340A; TPα^S331,T337,S340A): ~34%
Δ[Ca2+]i, U46619-induced (TPα^T337A; primary 1 μM U46619 4 min): 200 ± 9.2 nM
Δ[Ca2+]i, U46619-induced (TPα^T337A; [1]): 49 ± 5 nM
secondary U46619 [Ca2+]i response relative to primary response (TPα^T337A; TPα^T337A): 25%
Δ[Ca2+]i, U46619-induced (TPα^S329,331A; primary 1 μM U46619 4 min): 176 ± 9.4 nM
Δ[Ca2+]i, U46619-induced (TPα^S329,331A; [1]): 63 ± 4.4 nM
secondary U46619 [Ca2+]i response relative to primary response (TPα^S329,331A; printed as TPα^S239,331A, Fig. 6A and B): 36%
Structure (SMILES): CCCCC[C@H](O)/C=C/[C@@H]1[C@@H](C/C=C\CCCC(=O)O)[C@H]2CO[C@@H]1C2 [U46619]
